Where two headings read alike, the source gives them in different places.
Assays:
[1] = target: T1, wild-type human ALK protein (cytoplasmic domain, amino acid 1058-1620) (Homo sapiens, UniProt Q9UM73); experiment: Wild-type ALK kinase inhibition, Lance TR-FRET assay; format: biochemical
T1 construct: The cytoplasmic domain (amino acid 1058-1620) of wild-type human ALK protein; purchased Carna Biosciences, Inc (Japan)
Experimental: The cytoplasmic domain (amino acid 1058-1620) of wild-type human ALK protein expressed as N-terminal GST-fusion protein was purchased from Carna Biosciences, Inc (Japan). Mutated ALK proteins were expressed in SF9 insect cells with N-terminal tags cleaved after purification. Kinase activities of all enzymes were assessed using a Lance® TR-FRET assay kit from Perkin Elmer Life Sciences (Waltham, Mass.). 2.5 μL of compound solution and 5 μL of protein solution were added into a black low volume 384 well microtiter plate which was incubated for 30 minutes with gentle shaking at room temperature, followed by adding 2.5 μL of fluorescently labeled peptide substrate (ULight™-IRS-1 (Tyr983) Peptide) and ATP mixture solution. The kinase reaction was performed in 50 mM HEPES (pH 7.5) with 1 mM EGTA, 1 mM MgCl2, and 2 mM DTT, 0.01% Tween-20 added right before the assay. Final concentrations of ATP, substrates, and DMSO were 100 μM, 20 nM, and 0.5%, respectively. […] Final ALK concentrations were 1 nM, 1 nM, InM, 128 nM, 2 nM, and 4 nM for wild-type, F1174L, L1196M, S1206Y, G1269A, and G1202R, respectively. The reaction was allowed to perform for 90 minutes in dark with gentle shaking at room temperature after which 10 μL of 20 mM EDTA and 2 nM Eu-W1024 anti-phosphotyrosine antibody (PT66) mixture solution in the detection buffer from the manufacturer was added to terminate the reaction and detect the phosphorylation of the peptide substrate. The final mixture was incubated in the dark for 1 hour before the plate was read on a Tecan Infinite M-1000 multi-mode plate reader (Tecan, Durham N.C.) with an excitation wavelength of 320 nm. Emission intensities were measured at both 620 and 665 nm with the intensity ratio between 665 and 620 nm corresponding to the peptide substrate phosphorylation. IC50 values of inhibitors were obtained by fitting the ratio of 665/620 nm vs inhibitor concentrations in a sigmoidal dose-response curve (variable slope) with a non-linear regression.

[2] = target: T2, ALK F1197M (Homo sapiens, UniProt Q9UM73); experiment: Mutant ALK kinase inhibition, F1197M; format: biochemical; conditions: Table 5
T2 construct: Mutated ALK proteins were expressed in SF9 insect cells with N-terminal tags cleaved after purification; fused on or other part: N-terminal tag, cleaved after purification

[3] = target: T3, ALK L1196M (Homo sapiens, UniProt Q9UM73, L1196M); experiment: Mutant ALK kinase inhibition, Lance TR-FRET, L1196M; format: biochemical; conditions: Table 5; ATP 100 μM
T3 construct: made in house; host or cells: SF9 insect cells
Experimental: The cytoplasmic domain (amino acid 1058-1620) of wild-type human ALK protein expressed as N-terminal GST-fusion protein was purchased from Carna Biosciences, Inc (Japan). Mutated ALK proteins were expressed in SF9 insect cells with N-terminal tags cleaved after purification. Kinase activities of all enzymes were assessed using a Lance® TR-FRET assay kit from Perkin Elmer Life Sciences (Waltham, Mass.). 2.5 μL of compound solution and 5 μL of protein solution were added into a black low volume 384 well microtiter plate which was incubated for 30 minutes with gentle shaking at room temperature, followed by adding 2.5 μL of fluorescently labeled peptide substrate (ULight™-IRS-1 (Tyr983) Peptide) and ATP mixture solution. The kinase reaction was performed in 50 mM HEPES (pH 7.5) with 1 mM EGTA, 1 mM MgCl2, and 2 mM DTT, 0.01% Tween-20 added right before the assay. Final concentrations of ATP, substrates, and DMSO were 100 μM, 20 nM, and 0.5%, respectively. […] The final mixture was incubated in the dark for 1 hour before the plate was read on a Tecan Infinite M-1000 multi-mode plate reader (Tecan, Durham N.C.) with an excitation wavelength of 320 nm. Emission intensities were measured at both 620 and 665 nm with the intensity ratio between 665 and 620 nm corresponding to the peptide substrate phosphorylation. […]

[4] = target: ALK V1180L (Homo sapiens, UniProt Q9UM73, V1180L); experiment: Cell based assay, ALK V1180L; set-up: key: + = active; −− = inactive; conditions: Table 5
[5] = target: T4, ROS1 (Homo sapiens, UniProt P08922); experiment: KINOMEscan kinase panel, ROS1; format: binding
T4 construct: purchased LeadHunter Discovery Services (currently DiscoverX Corporation), KINOMEscan screening service
Excerpt: (§1) Cpd. No. 5 was screened for its activity against a panel of human kinases using the KINOMEscan™ screening platform from LeadHunter Discovery Services (currently DiscoverX Corporation (Fremont, Calif. 94538, United States). See Table 7.

[6] = target: T5, LTK (Homo sapiens, UniProt P29376); experiment: KINOMEscan kinase panel, LTK; format: binding
T5 construct: purchased LeadHunter Discovery Services (currently DiscoverX Corporation), KINOMEscan screening service
Excerpt: as §1

[7] = target: T6, LRRK2(G2019S) (Homo sapiens, UniProt Q5S007, G2019S); experiment: KINOMEscan kinase panel, LRRK2(G2019S); format: binding
T6 construct: purchased LeadHunter Discovery Services (currently DiscoverX Corporation), KINOMEscan screening service
T6 sequence (Q5S007 whole entry G2019S): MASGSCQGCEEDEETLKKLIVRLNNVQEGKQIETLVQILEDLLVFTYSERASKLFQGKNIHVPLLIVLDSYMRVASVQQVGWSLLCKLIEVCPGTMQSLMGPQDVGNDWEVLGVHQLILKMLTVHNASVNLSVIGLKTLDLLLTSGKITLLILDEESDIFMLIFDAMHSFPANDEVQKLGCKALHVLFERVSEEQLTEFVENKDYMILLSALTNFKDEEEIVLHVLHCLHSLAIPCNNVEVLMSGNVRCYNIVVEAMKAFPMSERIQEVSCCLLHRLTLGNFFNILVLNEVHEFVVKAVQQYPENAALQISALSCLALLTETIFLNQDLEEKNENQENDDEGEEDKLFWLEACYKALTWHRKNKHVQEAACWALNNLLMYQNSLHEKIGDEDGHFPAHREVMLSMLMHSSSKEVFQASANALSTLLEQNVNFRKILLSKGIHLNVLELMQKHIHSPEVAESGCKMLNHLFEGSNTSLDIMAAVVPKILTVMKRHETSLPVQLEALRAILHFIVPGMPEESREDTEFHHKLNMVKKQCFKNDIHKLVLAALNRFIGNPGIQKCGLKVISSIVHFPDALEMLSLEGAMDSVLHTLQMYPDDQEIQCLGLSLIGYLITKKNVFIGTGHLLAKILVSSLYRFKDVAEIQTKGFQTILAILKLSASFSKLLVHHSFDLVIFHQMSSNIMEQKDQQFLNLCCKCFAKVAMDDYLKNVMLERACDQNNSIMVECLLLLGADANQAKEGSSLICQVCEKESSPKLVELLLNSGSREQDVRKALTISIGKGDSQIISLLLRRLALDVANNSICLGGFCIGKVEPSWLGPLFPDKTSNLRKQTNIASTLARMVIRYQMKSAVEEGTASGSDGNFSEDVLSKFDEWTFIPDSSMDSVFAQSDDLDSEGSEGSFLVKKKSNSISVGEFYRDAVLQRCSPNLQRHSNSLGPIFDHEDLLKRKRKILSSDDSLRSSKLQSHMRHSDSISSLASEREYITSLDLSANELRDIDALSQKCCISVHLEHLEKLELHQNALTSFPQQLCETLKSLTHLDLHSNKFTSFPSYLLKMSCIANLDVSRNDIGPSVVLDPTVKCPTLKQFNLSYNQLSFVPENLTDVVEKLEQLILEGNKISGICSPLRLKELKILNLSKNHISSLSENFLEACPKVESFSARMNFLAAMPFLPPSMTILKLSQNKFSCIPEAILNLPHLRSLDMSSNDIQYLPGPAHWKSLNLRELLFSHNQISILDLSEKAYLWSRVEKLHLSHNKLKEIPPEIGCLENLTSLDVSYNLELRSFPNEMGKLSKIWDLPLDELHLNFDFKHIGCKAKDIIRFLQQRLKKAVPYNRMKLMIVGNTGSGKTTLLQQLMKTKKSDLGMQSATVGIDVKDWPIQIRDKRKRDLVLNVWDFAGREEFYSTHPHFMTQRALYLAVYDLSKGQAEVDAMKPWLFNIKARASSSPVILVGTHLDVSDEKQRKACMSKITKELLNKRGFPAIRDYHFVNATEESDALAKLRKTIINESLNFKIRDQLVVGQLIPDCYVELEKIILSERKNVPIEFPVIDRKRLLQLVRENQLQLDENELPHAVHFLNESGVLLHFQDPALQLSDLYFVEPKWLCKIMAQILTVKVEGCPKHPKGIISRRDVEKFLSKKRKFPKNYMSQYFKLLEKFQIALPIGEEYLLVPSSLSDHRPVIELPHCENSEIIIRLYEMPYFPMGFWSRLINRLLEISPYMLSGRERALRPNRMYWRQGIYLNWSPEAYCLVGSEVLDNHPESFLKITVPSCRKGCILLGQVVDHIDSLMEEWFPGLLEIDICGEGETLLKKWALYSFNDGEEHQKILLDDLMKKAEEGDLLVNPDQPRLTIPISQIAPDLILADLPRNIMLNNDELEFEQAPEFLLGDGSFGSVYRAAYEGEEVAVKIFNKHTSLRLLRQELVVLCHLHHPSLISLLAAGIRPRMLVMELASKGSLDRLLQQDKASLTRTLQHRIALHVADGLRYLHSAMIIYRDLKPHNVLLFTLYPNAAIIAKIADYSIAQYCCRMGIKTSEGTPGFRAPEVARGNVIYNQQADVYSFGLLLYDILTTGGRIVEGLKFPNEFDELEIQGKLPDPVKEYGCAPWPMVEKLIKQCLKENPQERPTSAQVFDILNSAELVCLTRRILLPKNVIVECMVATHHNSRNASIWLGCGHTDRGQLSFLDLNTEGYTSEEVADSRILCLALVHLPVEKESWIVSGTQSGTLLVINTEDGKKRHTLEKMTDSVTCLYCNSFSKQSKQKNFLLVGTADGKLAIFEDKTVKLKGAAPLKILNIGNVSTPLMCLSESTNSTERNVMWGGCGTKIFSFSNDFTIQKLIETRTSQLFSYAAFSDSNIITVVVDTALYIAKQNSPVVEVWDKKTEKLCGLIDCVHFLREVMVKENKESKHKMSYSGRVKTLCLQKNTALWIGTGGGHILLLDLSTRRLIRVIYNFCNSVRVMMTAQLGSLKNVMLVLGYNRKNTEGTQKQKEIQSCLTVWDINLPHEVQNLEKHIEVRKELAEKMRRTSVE
Excerpt: as §1

[8] = target: T7, FES (Homo sapiens, UniProt P07332); experiment: KINOMEscan kinase panel, FES; format: binding
T7 construct: purchased LeadHunter Discovery Services (currently DiscoverX Corporation), KINOMEscan screening service
Excerpt: as §1

[9] = target: T8, IGF1R (Homo sapiens, UniProt P08069); experiment: KINOMEscan kinase panel, IGF1R; format: binding
T8 construct: purchased LeadHunter Discovery Services (currently DiscoverX Corporation), KINOMEscan screening service
Excerpt: as §1

[10] = target: T9, INSR (Homo sapiens, UniProt P06213); experiment: KINOMEscan kinase panel, INSR; format: binding
T9 construct: purchased LeadHunter Discovery Services (currently DiscoverX Corporation), KINOMEscan screening service
T9 sequence (P06213 28-1382): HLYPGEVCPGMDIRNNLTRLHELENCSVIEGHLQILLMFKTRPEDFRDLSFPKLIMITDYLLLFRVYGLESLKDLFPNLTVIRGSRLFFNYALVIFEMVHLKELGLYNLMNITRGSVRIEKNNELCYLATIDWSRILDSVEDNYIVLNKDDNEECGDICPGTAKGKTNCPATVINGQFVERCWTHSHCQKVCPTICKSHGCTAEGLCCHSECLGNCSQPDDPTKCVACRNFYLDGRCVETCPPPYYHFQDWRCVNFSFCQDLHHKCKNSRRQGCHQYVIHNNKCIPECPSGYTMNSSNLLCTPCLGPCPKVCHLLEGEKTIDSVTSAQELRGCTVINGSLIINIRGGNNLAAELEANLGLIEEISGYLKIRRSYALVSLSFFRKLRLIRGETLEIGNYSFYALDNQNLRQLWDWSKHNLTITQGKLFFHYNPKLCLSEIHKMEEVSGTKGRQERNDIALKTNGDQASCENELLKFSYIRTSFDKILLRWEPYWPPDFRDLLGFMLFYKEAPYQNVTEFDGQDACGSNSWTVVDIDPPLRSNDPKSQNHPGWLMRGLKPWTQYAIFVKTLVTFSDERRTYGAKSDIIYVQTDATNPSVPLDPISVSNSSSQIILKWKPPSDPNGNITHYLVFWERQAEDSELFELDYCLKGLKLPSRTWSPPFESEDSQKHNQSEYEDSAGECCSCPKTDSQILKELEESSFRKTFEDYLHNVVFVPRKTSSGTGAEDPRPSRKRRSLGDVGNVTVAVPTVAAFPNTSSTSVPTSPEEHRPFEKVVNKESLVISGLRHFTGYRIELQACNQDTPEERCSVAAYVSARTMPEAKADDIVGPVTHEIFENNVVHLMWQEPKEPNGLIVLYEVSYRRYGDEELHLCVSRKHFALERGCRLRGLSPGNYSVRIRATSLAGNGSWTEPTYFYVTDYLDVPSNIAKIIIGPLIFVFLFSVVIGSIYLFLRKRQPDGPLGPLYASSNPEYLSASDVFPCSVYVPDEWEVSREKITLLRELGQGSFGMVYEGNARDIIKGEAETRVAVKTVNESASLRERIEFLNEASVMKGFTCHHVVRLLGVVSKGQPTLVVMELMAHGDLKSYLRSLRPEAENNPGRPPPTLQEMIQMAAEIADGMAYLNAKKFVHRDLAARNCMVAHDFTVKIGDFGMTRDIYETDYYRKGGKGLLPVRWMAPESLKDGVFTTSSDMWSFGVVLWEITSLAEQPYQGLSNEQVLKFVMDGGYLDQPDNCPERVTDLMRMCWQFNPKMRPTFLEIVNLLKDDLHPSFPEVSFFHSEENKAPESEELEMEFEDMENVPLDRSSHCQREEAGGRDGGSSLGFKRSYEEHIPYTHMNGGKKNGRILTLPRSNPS
Excerpt: as §1

[11] = target: T10, INSRR (Homo sapiens, UniProt P14616); experiment: KINOMEscan kinase panel, INSRR; format: binding
T10 construct: purchased LeadHunter Discovery Services (currently DiscoverX Corporation), KINOMEscan screening service
Excerpt: as §1

[12] = Pharmacokinetics in SD rats; format: in vivo; conditions: Table 8 (SD rats); for AUC0-t (ng · h/mL) PO / AUC0-∞ (ng · h/mL) PO / Cmax(ng/mL) PO / Tmax (h) PO / t1/2 (h) PO: PO 10 mg/kg, 10 mg/kg
Experimental: Routine pharmacokinetics studies were performed for Cpd. No. 5 in SD rats and beagle dogs.

[13] = Sprague-Dawley, rat, in vivo, iv, 1 mg/kg, IV 1 mg/kg
[14] = listed as Cpd. No. 5 (solution)
[15] = listed as Cpd. No. 5 (suspension)

T1 sequence (Q9UM73 1058-1620): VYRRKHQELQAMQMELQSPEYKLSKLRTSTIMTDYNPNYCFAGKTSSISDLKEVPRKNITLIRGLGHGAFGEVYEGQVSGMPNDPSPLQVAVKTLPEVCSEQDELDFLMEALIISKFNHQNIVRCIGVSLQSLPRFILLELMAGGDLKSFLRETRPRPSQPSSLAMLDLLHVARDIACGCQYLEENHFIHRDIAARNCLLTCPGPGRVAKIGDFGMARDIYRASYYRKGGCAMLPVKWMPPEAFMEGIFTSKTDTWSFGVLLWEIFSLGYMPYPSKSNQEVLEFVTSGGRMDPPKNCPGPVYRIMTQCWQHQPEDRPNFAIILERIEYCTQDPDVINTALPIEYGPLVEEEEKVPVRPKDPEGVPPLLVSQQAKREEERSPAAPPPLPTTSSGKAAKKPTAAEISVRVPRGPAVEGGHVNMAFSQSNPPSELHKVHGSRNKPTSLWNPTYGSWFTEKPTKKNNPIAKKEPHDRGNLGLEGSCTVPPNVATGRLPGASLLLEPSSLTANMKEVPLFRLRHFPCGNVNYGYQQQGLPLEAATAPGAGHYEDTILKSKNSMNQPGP

Cc1cc(Nc2ncc(Cl)c(Nc3ccccc3S(=O)(=O)C(C)C)n2)c(OC(C)C)cc1C1=CCN(C2CCOCC2)CC1 [Cpd. No. 5, 5-chloro-N2-(2-isopropoxy-5-methyl-4-(1-(tetrahydro-2H-pyran-4-yl)-1,2,3,6-tetrahydropyridin-4-yl)phenyl)-N4-(2-(isopropylsulfonyl)phenyl)pyrimidine-2,4-diamine]
IC50 ([1]; Table 4, target not given, Cpd. No. 5 value equals WT ALK IC50 of Table 5, read-out: Inhibitory activity): 0.85 nM
IC50 ([1]; Table 5, ATP 100 μM, read-out: IC50 (nM), WT): 0.85 nM
IC50 [2]: 3.3 nM
IC50 [3]: 0.73 nM
V1180L (c) [4]: + (c)
Kd [5]: 0.73 nM
Kd [6]: 0.62 nM
Kd [7]: 6.6 nM
Kd [8]: 12 nM
Kd [9]: 9 nM
Kd [10]: 54 nM
Kd [11]: 32 nM
Cmax [12, 13]: 234 ng/mL
Tmax [12, 13]: 4.98 min
AUC(0-t) ([12]; Sprague-Dawley, rat, in vivo, iv, 1 mg/kg, IV 1 mg/kg, read-out: AUC0-t (ng · h/mL) IV): 506 ng·h/mL
AUC(0-inf) ([12]; Sprague-Dawley, rat, in vivo, iv, 1 mg/kg, IV 1 mg/kg, read-out: AUC0-∞ (ng · h/mL) IV): 576 ng·h/mL
half-life ([12]; Sprague-Dawley, rat, in vivo, iv, 1 mg/kg, IV 1 mg/kg, read-out: t1/2 (h) IV (converted)): 3.94 h
MRT inf ([12]; Sprague-Dawley, rat, in vivo, IV 1 mg/kg): 4.54 h
clearance ([12]; Sprague-Dawley, rat, in vivo, IV 1 mg/kg, read-out: CL (iv) (converted)): 29.2 mL/min/kg
Vd ([12]; Sprague-Dawley, rat, in vivo, IV 1 mg/kg, read-out: Vss (iv)): 7.97 L/kg
F(AUC0-t) ([12]; PO 10 mg/kg vs IV 1 mg/kg, solution): 31.1%
AUC0-t (ng · h/mL) PO [12, 14]: 1759 ng·h/mL
AUC0-∞ (ng · h/mL) PO [12, 14]: 1788 ng·h/mL
Cmax(ng/mL) PO [12, 14]: 153 ng/mL
Tmax (h) PO [12, 14]: 2.67 h
t1/2 (h) PO [12, 14]: 3.93 h
AUC0-t (ng · h/mL) PO [12, 15]: 719 ng·h/mL
AUC0-∞ (ng · h/mL) PO [12, 15]: 733 ng·h/mL
Cmax(ng/mL) PO [12, 15]: 75.9 ng/mL
Tmax (h) PO [12, 15]: 3.67 h
t1/2 (h) PO [12, 15]: 4.05 h
